In patent US12161676B2, “Methods of use of islet cells” (CEDARS-SINAI MEDICAL CENTER, priority 2018, dated 2024) one finds NKX6.1 levels, glucagon levels and c-peptide levels data, which are given here for 2 compounds.

The test deals with endocrine progenitors. The test can be described thus: Differentiation of iPSC-derived endocrine progenitors towards immature beta cells, marker expression with tested reagent combinations. Type of test: cell-based, human. As to conditions: addition of the reagent during differentiation of endocrine progenitors into beta cells. How it is done: FIG. 31. Expression of DAPI, C-Peptide, Glucagon and NKX6.1 when testing various compounds at day 23.
FIG. 32. Measurement of DAPI, C-Peptide, Glucagon and NKX6.1 expression across tested compound combinations.
To further differentiate endocrine progenitors into beta cells, various reagents were tested to determine which combinations are most efficient in generating immature beta cells. T3 was selected for its role in beta cell survival, function, and identity Alk5 inhibitor II was selected for its specificity in inhibition of TGF beta receptor 1. XXI was selected as Notch inhibitor to exit cell cycle and as a driving force between endocrine vs duct phenotypes. Noggin is selected for BMP inhibition due to evidence that inhibition of this pathway is important for endocrine differentiation. Addition of notch inhibitor XXI reduced NKX6.1 levels and increased glucagon levels. […] The aforementioned growth factors can be used in combination for immature beta cell production. Thereafter, there is a need for a maturation step to induce glucose sensitivity on immature induced-islet cells

For the compound `C[C@H](NC(=O)Cc1cc(F)cc(F)c1)C(=O)N[C@H]1N=C(c2ccccc2)c2ccccc2N(C)C1=O` [XXI], the NKX6.1 levels result is recorded as “reduced” and the glucagon levels entry was “increased”.

For the compound noggin, the c-peptide levels entry was “slightly increases”.
